Test results published in patent publication EP0200024B1, “3-Cyano-pyridines, process for their preparation and their pharmaceutical use” (ARZNEIMITTELWERK DRESDEN GmbH, priority 1985, dated 1986).
pIC50: −log10 of the molar value. Read-outs that look alike come from different tables or passages of the source.

Tests used:
[1] = system: Isolierter, spontanaktiver Vorhof des Meerschweinchens; test: Isolated, spontaneously active atrium (inotropy and frequency); parameters: species or system Meerschweinchen; conditions: for positiv inotrope Wirkung / chronotrope Wirkung: result in words
Experimental: Für die Versuche wurden männliche Meerschweinchen mit einer Körpermasse von 400-500 g verwendet. Am isolierten, spontanaktiven Vorhof erfolgte nach einer 60 Min. währenden Adaptationszeit der Organpräparate in 32 °C temperierter carbogen-durchperlter Tyrodelösung die Untersuchung der Beeinflussung von Inotropie und Frequenz unter Einwirkung der 3-Cyan-2-(heteroalkyl-1-hetero)-pyridine der Formel I. Eine Reihe von Verbindungen zeigte eine starke und dosisabhängige positiv inotrope Wirkung. Bei Verwendung einer Tyrodelösung nach A.A. Alousi et al. [Circ. Res. 45, 666 (1979)] zeigen beispielsweise die Verbindungen von Beispiel 1.2, 1.7, 1.27, 3.3, 3.4, 3.5, 4.1 bzw. 4.3 eine 30%ige Steigerung der Inotropie bei Konzentrationen von 5,6 · 10⁻⁵, 5,4 · 10⁻⁶, 5,0 · 10⁻⁵, 5,8 · 10⁻⁵, 9,1 · 10⁻⁵, 1,6 · 10⁻⁴, 3,5 · 10⁻⁵ und 5,4 · 10⁻⁵ mol/l. Die Verbindung von Beispiel 1.27 zeigt bei einer Konzentration von 5 · 10⁻⁵ mol/l eine Abnahme der Frequenz um 15 %. Die Verbindung von Beispiel 1.8 zeigt bei Verwendung einer Tyrodelösung mit der Zusammensetzung (mmol/l): NaCl 136,9; KCl 2,7; CaCl₂ 1,8; MgCl₂ 1,0; NaHCO₃ 11,9; NaH₂PO₄ 0,4; Glucose 16,5 eine 30%ige Steigerung der Inotropie bei einer Konzentration von 1,2 · 10⁻⁴ mol/l.

Narkotisierter Hund = test: Anaesthetised dog i.v. (left ventricular pressure dp/dtmax, arterial pressure); assay type: in vivo, Bastardhunden; conditions: for ED10 / ED50: Canis lupus familiaris, iv; for ED10: read-out: 10%ige Senkung des diastolischen Blutdruckes bei einer Dosis von; for ED50: read-out: 50%ige Steigerung des Kontraktilitätsparameters dp/dtmax bei einer Dosis von; for Steigerungen des Kontraktilitätsparameters dp/dtmax: result in words
Excerpt: Die Untersuchungen wurden an Bastardhunden in Chloralose-Urethan-Narkose bei Prämedikation mit Morphinhydrochlorid unter spontaner Atmung durchgeführt. . Der linksventrikuläre Druck wurde mittels Tipmanometer und der arterielle Druck wurde über Herzkatheter via A. brachialis gemessen [vgl. K. Femmer et al., Pharmazie 30 642 (1975)]. Unter dem Einfluß der 3-Cyan-2-(heteroalkyl-1-hetero)-pyridine der Formel I wurden eine dosisabhängige beträchtliche. Steigerung der Kontraktionskraft des Herzens sowie teilweise eine signifikante Senkung des peripheren Gesamtwiderstandes beobachtet. So zeigen beispielsweise die Verbindungen von Beispiel 3.2, 4.1, 4.3 und 4.5 eine 50%ige Steigerung des Kontraktilitätsparameters dp/dtmax bei einer Dosis von 6,1 · 10⁻⁶, 1,4 · 10⁻⁶, 2,5 · 10⁻⁶ bzw. 2.0 · 10⁻⁶ mol/kg sowie eine 10%ige Senkung des diastolischen Blutdruckes als relevantes Maß einer Abnahme des peripheren Gesamtwiderstandes bei einer Dosis von 2,1 · 10⁻⁶, 1,6 · 10⁻⁶,1,6 · 10⁻⁶ bzw. 1,2 · 10⁻⁶ mol/kg. Die Verbindung von Beispiel 2.1 zeigt bei einer Dosis von 5 mg/kg eine Steigerung von dp/dtmax um 126 % Für die Verbindung von Beispiel 2.1 wurde bei einer Dosis von 5 mg/kg eine Senkung des diastolischen Blutdruckes um 37 % gefunden.

Meerschweinchen = test: Inhalative histamine bronchospasm, oral administration; assay type: in vivo; conditions: Cavia porcellus, 1 h, 60 min before inhaled 0,1 % histamine, 10 animals per dose, read-out: ED₅₀-Werte (Schutz vor Histamin-Bronchialkonstriktionen)
Experimental: Eine, in einem Ultraschallverdampfer vernebelte 0,1 %ige Histaminlösung induziert an männlichen Meerschweinchen (Körpermasse 200-300 g) innerhalb von 2 bis 3 Min. typische Bronchialkonstriktionen. Durch orale Verabreichung geeigneter Dosen der 3-Cyan-2-(heteroalkyl-1-hetero)-pyridine der Formel I 60 Min. vor der inhalativen Histamingabe wurden die Tiere innerhalb einer festgelegten Expositionszeit vor den durch Histamin verursachten Bronchialkonstriktionen geschützt. Für die Derivate von Beispiel 1.2, 1.6, 1.7 und 1.8 ergeben sich z.B. aus je 10 Tieren pro Dosis ED₅₀-Werte von 4,3 · 10⁻⁴, 6,0 · 10⁻⁴, 3,3 · 10⁻⁴ sowie 2,5 · 10⁻⁴ mol/kg, was auf deutliche bronchodilatatorische bzw. antiallergische Wirkungen hinweist.

[2] = system: Samenleiter von Meerschweinchen; test: Noradrenaline antagonism in vitro (noradrenaline contraction of isolated vas deferens); conditions: Cavia porcellus; compound given 1 min before submaximal noradrenaline concentration; read-out: ED₅₀-Werte (Hemmung der Noradrenalinkontraktion)
Experimental: Die in Warmblüterphosphattyrode präparierten Samenleiter von Meerschweinchen (ca. 400 g Körpermasse) wurden 60 Min. im Organbad adaptiert. Anschließend wurden die Kontraktionen unter Gabe von Noradrenalin isotonisch registriert. Die 3-Cyan-2-(heteroalkyl-1-hetero)-pyridine der Formel I wurden 1 Min vor den jeweils submaximal reagierenden Noradrenalinkonzentrationen in das Organbad appliziert. […] Für die Verbindungen von Beispiel 1.2, 1.6, 1.7 und 1.8 ergaben sich beispielsweise ED₅₀-Werte von 2,2 · 10⁻⁵, 1,6 · 10⁻⁴, 2,5 · 10⁻⁴ sowie 1,3 · 10⁻⁴ mol/l.

Langendorff-Herz = test: Langendorff heart in vitro (isolated perfused, freely beating heart; inotropy, chronotropy, coronary flow); parameters: species or system Meerschweinchen; activation: dose or concentration left out as unconfirmed; conditions: for EC30: molarity of solution, 0,1 ml bolus into aortic stump, giving 30 % increase of inotropy, read-out: Erhöhung der Inotropie um 30 % bei Applikation von je 0,1 ml einer ... molaren Lösung; for EC100: molarity of solution, 0,1 ml bolus, giving 100 % increase of coronary flow, read-out: Erhöhung des Koronardurchflusses um 100 % bei Applikation von je 0,1 ml einer ... molaren Lösung; for activation at 10000 µM / activation: 0,1 ml of a 10⁻² molar stock solution into the aorta; for activation at 10000 µM: read-out: Erhöhung der Inotropie; for activation: read-out: Erhöhung des Koronardurchflusses; for positiv chronotrope Wirkung / positiv inotrope Wirkung: result in words
Experimental: Für die Versuche wurden männliche Meerschweinchen mit einer, Körpermasse von 300-350 g eingesetzt. An isolierten, mit carbogenbegaster Tyrodelösung von 37 °C durchströmten, frei schlagenden Herzen, wurden unter konstantem Druck die Kontraktionskraft (Inotropie), die Frequenz (Chronotropie) und der Koronardurchfluß unter dem Einfluß der 3-Cyan-2-(heteroalkyl-1-hetero)-5-(pyrid-4-yl)-pyridine der Formel I untersucht. Dazu wurden jeweils 0,1 ml der entsprechend molaren Substanzlösungen als Bolus direkt in den Aortenstumpf appliziert. Die 3-Cyan-2-(heteraalkyl-1-hetera)-5-(pyrid-4-yl)-pyridine zeigten eine teilweise starke und konzentrationsabhängige positiv inotrope und koronardilatatorische Wirkung. Die positiv chronotrope Wirkung war deutlich geringer, ausgeprägt. Beispielsweise zeigen die Verbindungen der Beispiele 1.2, 1.6, 1.7 und 1.8 eine Erhöhung der Inotropie um 30 % bei Applikation von je 0,1 ml einer 3,0 · 10⁻³, 2,2 · 10⁻², 2,0 · 10⁻⁴ bzw. 1,0 · 10⁻³ molaren Lösung und eine Erhöhung des Koronardurchflusses um 100 % bei Applikation von je 0,1 ml einer 6,0 · 10⁻³, 6,5 · 10⁻², 1,1 · 10⁻² bzw. 1,3 · 10⁻² molaren Lösung. Die Verbindungen der Beispiele 2.2, 2.3 und 2.4 weisen bei Applikation von je 0,1 ml einer 10⁻² molaren Stammlösung in die Aorta eine Erhöhung der Inotropie um 51 %, 38 % und 31 % sowie eine Erhöhung des Koronardurchflusses um 59 %, 99 % bzw. 88 % auf.

[3] = Tyrode solution according to A.A. Alousi et al., 32 °C, read-out: 30%ige Steigerung der Inotropie bei Konzentrationen von

CC(=O)OCCNc1ncc(-c2ccncc2)cc1C#N [Beispiel 4.1, 2-(2-Acetoxy-ethylamino)-3-cyan-5-(pyrid-4-yl)-pyridin]
EC30 [1, 3]: 35 µM
positiv inotrope Wirkung [1]: gute und dosisabhängige positiv inotrope Wirkung
ED10 (Narkotisierter Hund): 1.6 µmol/kg
ED50 (Narkotisierter Hund): 1.4 µmol/kg
Steigerungen des Kontraktilitätsparameters dp/dtmax (Narkotisierter Hund): dosisabhängige beträchtliche Steigerungen

N#Cc1cc(-c2ccncc2)cnc1N(CCO)CCO [Beispiel 1.6, 2-[Bis-(2-hydroxy-ethyl)-amino]-3-cyan-5-(pyrid-4-yl)-pyridin]
ED50 (Meerschweinchen): 600 µmol/kg
pIC50 [2]: 3.80
EC30 (Langendorff-Herz): 22000 µM
EC100 (Langendorff-Herz): 65000 µM

CC(O)COc1ncc(-c2ccncc2)cc1C#N (stereo not shown) [Beispiel 2.4, 3-Cyan-2-(2-hydroxy-propoxy)-5-(pyrid-4-yl)-pyridin]
activation at 10000 µM (Langendorff-Herz): 31%
activation (Langendorff-Herz): 88%

Cc1nc(NCCCO)c(C#N)cc1-c1ccncc1 [Beispiel 3.4, 3-Cyan-2-(3-hydroxy-propylamino)-6-methyl-5-(pyrid-4-yl)-pyridin]
EC30 [1, 3]: 91 µM
positiv inotrope Wirkung [1]: gute und dosisabhängige positiv inotrope Wirkung

Cc1nc(NCCO)c(C#N)cc1-c1ccncc1 [Beispiel 3.3, 3-Cyan-2-(2-hydroxy-ethylamino)-6-methyl-5-(pyrid-4-yl)-pyridin]
EC30 [1, 3]: 58 µM
positiv inotrope Wirkung [1]: gute und dosisabhängige positiv inotrope Wirkung

Cc1nc(N2CCOCC2)c(C#N)cc1-c1ccncc1 [Beispiel 3.2, 3-Cyan-6-methyl-2-morpholino-5-(pyrid-4-yl)-pyridin]
ED10 (Narkotisierter Hund): 2.1 µmol/kg
ED50 (Narkotisierter Hund): 6.1 µmol/kg
Steigerungen des Kontraktilitätsparameters dp/dtmax (Narkotisierter Hund): dosisabhängige beträchtliche Steigerungen

Cc1nc(NCC(C)O)c(C#N)cc1-c1ccncc1 (stereo not shown) [Beispiel 3.5, 3-Cyan-2-(2-hydroxy-propylamino)-6-methyl-5-(pyrid-4-yl)-pyridin]
EC30 [1, 3]: 160 µM

Cc1nc(N2CCOCC2)c(C#N)cc1-c1ccccc1 [3-Cyan-6-methyl-2-morpholino-5-phenyl-pyridin]
Steigerungen des Kontraktilitätsparameters dp/dtmax (Narkotisierter Hund): dosisabhängige beträchtliche Steigerungen

COc1ccc(-c2cc(C#N)c(N3CCOCC3)nc2C)cc1OC [3-Cyan-5-(3,4-dimethoxy-phenyl)-6-methyl-2-morpholino-pyridin]
Steigerungen des Kontraktilitätsparameters dp/dtmax (Narkotisierter Hund): dosisabhängige beträchtliche Steigerungen

N#Cc1cc(-c2ccncc2)cnc1OCCO [Beispiel 2.2, 3-Cyan-2-(2-hydroxy-ethoxy-)-5-(pyrid-4-yl)-pyridin]
chronotrope Wirkung [1]: relative geringer positiv chronotroper Aktivität
positiv inotrope Wirkung [1]: ausgeprägte und dosisabhängige positiv inotrope Wirkung
activation at 10000 µM (Langendorff-Herz): 51%
activation (Langendorff-Herz): 59%
positiv chronotrope Wirkung (Langendorff-Herz): relative geringer positiv chronotroper Aktivität
positiv inotrope Wirkung (Langendorff-Herz): ausgeprägte und dosisabhängige positiv inotrope Wirkung

N#Cc1cc(-c2ccncc2)cnc1OCCCO [Beispiel 2.3, 3-Cyan-2-(3-hydroxy-propoxy)-5-(pyrid-4-yl)-pyridin]
activation at 10000 µM (Langendorff-Herz): 38%
activation (Langendorff-Herz): 99%

CC(=O)OCCOc1ncc(-c2ccncc2)cc1C#N [Beispiel 4.3, 2-(2-Acetoxy-ethoxy)-3-cyan-5-(pyrid-4-yl)-pyridin]
EC30 [1, 3]: 54 µM
positiv inotrope Wirkung [1]: gute und dosisabhängige positiv inotrope Wirkung
ED10 (Narkotisierter Hund): 1.6 µmol/kg
ED50 (Narkotisierter Hund): 2.5 µmol/kg
Steigerungen des Kontraktilitätsparameters dp/dtmax (Narkotisierter Hund): dosisabhängige beträchtliche Steigerungen

COCCOc1ncc(-c2ccncc2)cc1C#N [Beispiel 2.1, 3-Cyan-2-(2-methoxy-ethoxy)-5-(pyrid-4-yl)-pyridin]
Senkung des diastolischen Blutdruckes (Narkotisierter Hund; dose 5 mg/kg): 37%
Steigerung von dp/dtmax (Narkotisierter Hund; dose 5 mg/kg): 126%

N#Cc1cc(-c2ccncc2)cnc1N1CCN(C(=O)c2ccco2)CC1 [Beispiel 1.27, 3-Cyan-2-[4-(furan-2-yl-carbonyl)-piperazino]-5-(pyrid-4-yl)-pyridin]
inhibition at 50 µM ([1]; Cavia porcellus, at a concentration of 5 · 10⁻⁵ mol/l, read-out: Abnahme der Frequenz): 15%
EC30 [1, 3]: 50 µM
chronotrope Wirkung [1]: negativ chronotroper Wirkung
positiv inotrope Wirkung [1]: gute positiv inotrope Wirkung

N#Cc1cc(-c2ccncc2)cnc1NCCCO [Beispiel 1.8, 3-Cyan-2-(3-hydroxy-propylamino)-5-(pyrid-4-yl)-pyridin]
EC30 ([1]; Tyrode solution (mmol/l): NaCl 136,9, KCl 2,7, CaCl₂ 1,8, MgCl₂ 1,0, NaHCO₃ 11,9, NaH₂PO₄ 0,4, Glucose 16,5, read-out: 30%ige Steigerung der Inotropie bei einer Konzentration von): 120 µM
chronotrope Wirkung [1]: relative geringer positiv chronotroper Aktivität
positiv inotrope Wirkung [1]: ausgeprägte und dosisabhängige positiv inotrope Wirkung
ED50 (Meerschweinchen): 250 µmol/kg
pIC50 [2]: 3.89
EC30 (Langendorff-Herz): 1000 µM
EC100 (Langendorff-Herz): 13000 µM
positiv chronotrope Wirkung (Langendorff-Herz): relative geringer positiv chronotroper Aktivität
positiv inotrope Wirkung (Langendorff-Herz): ausgeprägte und dosisabhängige positiv inotrope Wirkung

CCC(=O)OCCNc1ncc(-c2ccncc2)cc1C#N [Beispiel 4.5, 3-Cyan-2-(2-propionyloxy-ethylamino)-5-(pyrid-4-yl)-pyridin]
ED10 (Narkotisierter Hund): 1.2 µmol/kg
ED50 (Narkotisierter Hund): 2 µmol/kg
Steigerungen des Kontraktilitätsparameters dp/dtmax (Narkotisierter Hund): dosisabhängige beträchtliche Steigerungen
